In patent US6828345B2, “O-substituted 6-methyltramadol derivatives” (Gruenenthal GmbH, priority 2000, dated 2004):

Key:
[1] = test system: phenylquinone-induced writhing reaction in mice; test: Phenylquinone-induced writhing test in mice; format: in vivo, Male NMRI mice; details: orally, phenylquinone i.p. 30 minutes after oral administration, writhing counted 5-20 minutes after phenylquinone; for ED50: Mus musculus, read-out: ED50 writhing inhibition
Description: The analgesic effectiveness of the compounds according to the invention was investigated in mice using the phenylquinone-induced writhing test as modified by I. C. Hendershot, J. Forsaith in J. Pharmacol. Exptl. Ther. 125, 237 (1959). Male NMRI mice weighing between 25 and 30 g were used for this purpose. Groups of 10 animals per substance dose received intraperitoneally 30 minutes after oral administration of a compound according to the invention, 0.3 ml per mouse of a 0.02% aqueous phenylquinone solution (phenylbenzoquinone, from Sigma, Deisenhofen; solution prepared by addition of 5% ethanol and storage in a water bath at 45° C.). The animals were then placed individually in observation cages. The number of pain-induced stretching movements (writhing reaction=contortion of the body accompanied by stretching of the rear extremities) was counted using a push-button counter 5-20 minutes after administration of the phenylquinone. The ED50 values (effective dose with 50% inhibition of the writhing reaction) were calculated with 95% level of confidence by means of regression analysis (evaluation program from Martens EDV-Service, Ekental) from the dose-dependent reduction in the writhing reaction compared to mice investigated in parallel to which only phenylquinone had been administered.

[2] = test system: tail-flick pain latency in mice; test: Tail-flick (focussed beam) test on mice; format: in vivo, NMR mice; details: for ED50: Mus musculus
Excerpt: The analgesic effectiveness of the compounds according to the invention was investigated by the focussed beam (tail-flick) test in mice according to the method developed by D'Amour and Smith (J. Pharmaceutical. Exp. Ther. 72, 74 79 (1941)). NMR mice weighing between 20 and 24 g were used for this purpose. The animals were placed individually in special test cages and the base of the tail was subjected to a focused beam of light from an electric lamp (tail-flick type 55/12/10.fl, Labtec, Dr Hess). The lamp intensity was adjusted so that the time from when the lamp was switched on to the sudden withdrawal of the tail (pain latency) was 3 to 5 seconds in the case of untreated animals. Before administration of a compound according to the invention the animals were pre-tested twice within 5 minutes and the mean value of these measurements was calculated as a pre-test mean value. The pain measurements were carried out 20, 40 and 60 minutes after intravenous administration. The analgesic action was calculated as the increase in the pain latency (% MPE) according to the following formula: […]
Here T0 is the latency time before application of the substance and T1 the latency time after application of the substance, and T2 is the maximum exposure time (12 sec).
In order to determine the dose dependence the respective compound according to the invention was applied in 3 to 5 logarithmically increasing doses that included in each case the threshold dose and the maximal effect dose, and the ED50 values were determined by means of regression analysis. The ED50 calculation was carried out at the effect maximum 20 minutes after intravenous administration of the substance.

[3] = iv, 20 min, i.v., effect maximum 20 minutes after intravenous administration
[4] = i.v., effect maximum 20 minutes after intravenous administration

CC1CCCC(CN(C)C)C1(O)c1cccc(O)c1 (racemic) [Example 3, 3-(2-dimethylaminomethyl-1-hydroxy-6-methyl-cyclohexyl)phenol]
ED50 writhing inhibition [1]: 2.09 mg/kg
ED50 [2, 3]: 2.15 mg/kg

CC1CCCC(CN(C)C)C1(O)c1cccc(O)c1 (stereo not drawn) [Example 9, 3-(2-dimethylaminomethyl-1-hydroxy-6-methylcyclohexyl)-phenol]
ED50 writhing inhibition [1]: 19.8 mg/kg
ED50 tail-flick [2, 4]: 14.7 mg/kg

C=CCOc1cccc(C2(O)C(C)CCCC2CN(C)C)c1 (racemic) [Example 4, 1-(3-allyloxyphenyl)-2-dimethylaminomethyl-6-methylcyclohexanol]
ED50 [1]: 9.38 mg/kg
ED50 [2, 3]: 20.2 mg/kg

C#COc1cccc(C2(O)C(C)CCCC2CN(C)C)c1 (stereo not drawn) [Example 19, 2-dimethylaminomethyl-1-(3-ethynyloxyphenyl)-6-methylcyclohexanol]
ED50 [2, 3]: 14.7 mg/kg

CC1CCCC(CN(C)C)C1(O)c1cccc(OC2CCCC2)c1 (stereo not drawn) [Example 14, 1-(3-cyclopentyloxyphenyl)-2-dimethylaminomethyl-6-methylcyclohexanol]
ED50 [1]: 26.2 mg/kg
ED50 [2, 3]: 20 mg/kg

CCOc1cccc(C2(O)C(C)CCCC2CN(C)C)c1 (racemic) [Example 2, 2-dimethylaminomethyl-1-(3-ethoxyphenyl)-6-methylcyclohexanol]
ED50 [2, 3]: 11.9 mg/kg

CCOc1cccc(C2(O)C(C)CCCC2CN(C)C)c1 (stereo not drawn) [Example 12, 2-dimethylaminomethyl-1-(3-ethoxyphenyl)-6-methylcyclohexanol]
ED50 writhing inhibition [1]: 4.39 mg/kg
ED50 [2, 3]: 13.4 mg/kg

CC1CCCC(CN(C)C)C1(O)c1cccc(O)c1 (racemic) [Example 8, 3-(2-dimethylaminomethyl-1-hydroxy-6-methylcyclohexyl)-phenol]
ED50 writhing inhibition [1]: 14.0 mg/kg

CC1CCCC(CN(C)C)C1(O)c1cccc(OCC2CCC2)c1 (stereo not drawn) [Example 16, 1-(3-cyclobutylmethoxyphenyl)-2-dimethylaminomethyl-6-methylcyclohexanol]
ED50 [1]: 32.8 mg/kg
ED50 [2, 3]: 21.5 mg/kg

COc1cccc(C2(O)C(C)CCCC2CN(C)C)c1 (racemic) [Example 1, 2-dimethylaminomethyl-1-(3-methoxyphenyl)-6-methylcyclohexanol]
ED50 [2, 3]: 5.6 mg/kg

COc1cccc(C2(O)C(C)CCCC2CN(C)C)c1 (stereo not drawn) [Example 5, 2-dimethylaminomethyl-1-(3-methoxyphenyl)-6-methylcyclohexanol]
ED50 [1]: 11 mg/kg
ED50 ([2]; po, orally (cell note)): 42.9 mg/kg

CC1CCCC(CN(C)C)C1(O)c1cccc(OC2CCC2)c1 (stereo not drawn) [Example 21, 1-(3-cyclobutoxyphenyl)-2-dimethylaminomethyl-6-methylcyclohexanol]
ED50 [2, 3]: 30 mg/kg

CC1CCCC(CN(C)C)C1(O)c1cccc(O)c1 (stereo not drawn) [Example 10, 3-(2-dimethylaminomethyl-1-hydroxy-6-methylcyclohexyl)-phenol]
ED50 writhing inhibition [1]: 5.3 mg/kg
ED50 tail-flick [2, 4]: 0.91 mg/kg

CCOc1cccc(C2(O)C(C)CCCC2CN(C)C)c1 (stereo not drawn) [Example 11, 2-dimethylaminomethyl-1-(3-ethoxyphenyl)-6-methylcyclohexanol]
ED50 writhing inhibition [1]: 21.6 mg/kg

COc1cccc(C2(O)C(C)CCCC2CN(C)C)c1 (stereo not drawn) [Example 6, 2-dimethylaminomethyl-1-(3-methoxyphenyl)-6-methylcyclohexanol]
ED50 writhing inhibition [1]: 6.58 mg/kg
ED50 [2, 3]: 7.73 mg/kg
